In assay [1] the target is T1, TaPGIc (Triticum aestivum, UniProt Q1PBI3).
T1 construct: gene GPI; cytosolic PGI, CTD 510-567, HLHM 444-466; homodimer
T1 sequence (Q1PBI3 1-567): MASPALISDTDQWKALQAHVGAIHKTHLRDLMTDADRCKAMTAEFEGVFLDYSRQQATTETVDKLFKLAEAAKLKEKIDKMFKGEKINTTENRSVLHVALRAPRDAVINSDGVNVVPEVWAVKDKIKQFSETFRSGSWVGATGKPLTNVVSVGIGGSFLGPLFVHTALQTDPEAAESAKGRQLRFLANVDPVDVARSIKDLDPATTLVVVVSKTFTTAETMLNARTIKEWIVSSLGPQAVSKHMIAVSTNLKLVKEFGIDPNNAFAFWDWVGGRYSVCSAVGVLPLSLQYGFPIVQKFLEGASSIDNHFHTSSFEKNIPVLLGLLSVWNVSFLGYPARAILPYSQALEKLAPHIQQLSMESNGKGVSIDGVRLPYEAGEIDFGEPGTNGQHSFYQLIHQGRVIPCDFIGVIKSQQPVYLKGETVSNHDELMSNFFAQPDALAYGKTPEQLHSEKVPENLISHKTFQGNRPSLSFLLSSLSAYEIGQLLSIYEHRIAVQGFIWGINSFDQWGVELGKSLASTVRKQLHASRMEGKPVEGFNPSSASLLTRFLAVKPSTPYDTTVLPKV
Put plainly: PGI activity inhibition, dose-response. In kind it is biochemical. As to conditions: read-out: IC50E4P.

For assay [2], the target named is T2, TaPGIp (Triticum aestivum, UniProt A0A3B6LNA8).
T2 construct: gene LOC123112261; plastid PGI, CTD 467-557, transit peptide probably removed; homodimer
T2 sequence (A0A3B6LNA8 64-620): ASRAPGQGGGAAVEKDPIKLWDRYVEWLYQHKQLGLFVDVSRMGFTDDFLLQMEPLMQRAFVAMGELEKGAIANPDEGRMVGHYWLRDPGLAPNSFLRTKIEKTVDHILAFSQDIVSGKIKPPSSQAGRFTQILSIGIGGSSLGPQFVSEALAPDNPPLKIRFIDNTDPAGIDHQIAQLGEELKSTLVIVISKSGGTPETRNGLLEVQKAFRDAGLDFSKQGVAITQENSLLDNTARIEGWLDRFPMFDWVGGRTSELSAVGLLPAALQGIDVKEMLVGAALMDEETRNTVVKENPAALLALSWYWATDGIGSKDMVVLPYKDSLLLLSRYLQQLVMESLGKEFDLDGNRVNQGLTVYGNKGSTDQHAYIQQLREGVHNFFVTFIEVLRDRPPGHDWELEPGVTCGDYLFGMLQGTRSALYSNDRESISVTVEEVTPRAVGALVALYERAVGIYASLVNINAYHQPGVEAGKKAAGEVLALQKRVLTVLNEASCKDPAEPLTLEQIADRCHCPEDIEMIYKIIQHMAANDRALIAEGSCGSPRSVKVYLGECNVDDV
Put plainly: PGI activity inhibition, dose-response. In kind it is biochemical. Particulars: read-out: IC50E4P.

On to `O=C[C@H](O)[C@H](O)COP(=O)(O)O` [E4P, erythrose 4-phosphate], for which the IC50 in assay [1] came out at 130 µM; in assay [2], 760 µM.
